{"source": "patent US7982038B2", "about": "(priority 2003, dated 2011)", "target": "α7 nAChR subtype (Rattus norvegicus, UniProt Q05941)", "sequence (Q05941 23-502 limits assumed)": "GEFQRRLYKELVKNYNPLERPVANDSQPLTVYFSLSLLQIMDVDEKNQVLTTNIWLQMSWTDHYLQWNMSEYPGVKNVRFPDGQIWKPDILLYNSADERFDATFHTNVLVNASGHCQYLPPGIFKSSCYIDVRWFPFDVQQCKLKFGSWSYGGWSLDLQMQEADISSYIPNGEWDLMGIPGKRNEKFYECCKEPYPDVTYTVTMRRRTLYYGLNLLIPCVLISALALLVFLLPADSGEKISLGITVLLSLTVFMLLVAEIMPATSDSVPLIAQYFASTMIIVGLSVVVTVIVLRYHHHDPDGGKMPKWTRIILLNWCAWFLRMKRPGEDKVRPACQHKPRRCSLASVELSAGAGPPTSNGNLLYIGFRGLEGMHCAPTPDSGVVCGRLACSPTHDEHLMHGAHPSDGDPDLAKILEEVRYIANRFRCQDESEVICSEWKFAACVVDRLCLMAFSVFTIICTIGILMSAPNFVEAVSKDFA", "format": "binding", "conditions": "read-out: KD (saturation curve, one site model)", "data": [{"substance": "[^125I]-α-Bungarotoxin [^125I-α-BTX]", "values": [{"measurement": "Kd", "result": 1.67, "unit": "nM"}]}]}
